Measurements as given in PMC11045757, “Group 3 medulloblastoma transcriptional networks collapse under domain specific EP300/CBP inhibition” (Nature Communications, 2024).

Test system: 460 barcoded cancer cell lines
Assay: PRISM pooled barcoded cancer cell line growth screen, 10-point dose-response, 5 days, AUC
Assay type: cell-based
Design: scale not given here
Source text: Several small molecule inhibitors of distinct protein domains of EP300/CBP are available, though the majority target the histone acetyltransferase domain (HAT) or bromodomain (BRD)[5],[10],[21],[22]. […] We used these tools to investigate the relative contribution of the EP300/CBP BRD or HAT domain to tumor cell growth (Fig. 1a). To do so, we performed 10-point, dose-response growth assays using mixed pools of 460 barcoded cancer cell lines, over five days of treatment in vitro[33],[34]. Growth was measured using an area-under-the-curve (AUC) approach (Supplementary Table 1, Supplementary Fig. 1a). […] Given potential differences in compound penetration and solubility, and to compare the relative cell line and tumor-specific effects of these two compounds in assays performed non-simultaneously, we performed a median normalization of each dataset (Supplementary Table 2).

## CO[C@H]1CC[C@H](n2c([C@@H]3CCCC(=O)N3c3ccc(F)c(F)c3)nc3cc(-c4c(C)noc4C)ccc32)CC1 [CCS1477]
SF539, Glioma
  AUC: 0.9912
SH4, Melanoma
  AUC: 0.9252
SH10TC, Gastric Cancer
  AUC: 0.7637
SHP77, Lung Cancer
  AUC: 0.791
SIMA, Neuroblastoma
  AUC: 0.8003
SJSA1, Osteosarcoma
  AUC: 0.881
SKES1, Ewing Sarcoma
  AUC: 0.7015
SKHEP1, Liver Cancer
  AUC: 0.9726
SKM1, AML
  AUC: 0.6213
SKMEL30, Melanoma
  AUC: 0.7984
SKMES1, Lung Cancer
  AUC: 0.9581
SKMM2, Myeloma
  AUC: 0.9554
SKNAS, Neuroblastoma
  AUC: 0.9789
SKNBE2, Neuroblastoma
  AUC: 0.6208
SKNDZ, Neuroblastoma
  AUC: 0.8143
SKNEP1, Ewing Sarcoma
  AUC: 0.8025
SKNMC, Ewing Sarcoma
  AUC: 0.8546
SKNO1, AML
  AUC: 0.6432
SKNSH, Neuroblastoma
  AUC: 0.8336
SKOV3, Ovarian Cancer
  AUC: 0.9975
SKUT1, Leiomyosarcoma
  AUC: 0.8326
SNU1, Gastric Cancer
  AUC: 0.9131
SNU46, Head and Neck Cancer
  AUC: 0.9224
SNU61, Colon/Colorectal Cancer
  AUC: 0.9346
SNU81, Colon/Colorectal Cancer
  AUC: 1
SNU182, Liver Cancer
  AUC: 0.7735
SNU201, Glioblastoma
  AUC: 0.712
SNU213, Pancreatic Cancer
  AUC: 0.9853
SNU216, Gastric Cancer
  AUC: 0.9769
SNU245, Bile Duct Cancer
  AUC: 0.8366
SNU407, Colon/Colorectal Cancer
  AUC: 0.9923
SNU423, Liver Cancer
  AUC: 0.9162
SNU449, Liver Cancer
  AUC: 0.9509
SNU466, Glioblastoma
  AUC: 0.9993
SNU478, Bile Duct Cancer
  AUC: 0.6392
SNU601, Gastric Cancer
  AUC: 0.8941
SNU668, Gastric Cancer
  AUC: 0.9591
SNU685, Endometrial/Uterine Cancer
  AUC: 0.9601
SNU719, Gastric Cancer
  AUC: 0.914
SNU869, Bile Duct Cancer
  AUC: 0.9994
SNU878, Liver Cancer
  AUC: 0.7965
SNU886, Liver Cancer
  AUC: 1
SNU1041, Head and Neck Cancer
  AUC: 0.8828
SNU1066, Head and Neck Cancer
  AUC: 1
SNU1076, Head and Neck Cancer
  AUC: 0.8929
SNU1077, Endometrial/Uterine Cancer
  AUC: 0.9948
SNU1079, Bile Duct Cancer
  AUC: 0.994
SNU1105, Glioblastoma
  AUC: 0.9872
SNU1196, Bile Duct Cancer
  AUC: 0.8873
SNU1214, Head and Neck Cancer
  AUC: 0.7307
SNUC2A, Colon/Colorectal Cancer
  AUC: 0.8028
SNUC4, Colon/Colorectal Cancer
  AUC: 0.894
SQ1, Lung Cancer
  AUC: 0.8902
SR786, Lymphoma
  AUC: 0.7905
STM9101, Rhabdoid
  AUC: 0.9061
SUDHL8, Lymphoma
  AUC: 0.8983
SW48, Colon/Colorectal Cancer
  AUC: 1
SW579, Thyroid Cancer
  AUC: 0.9957
SW620, Colon/Colorectal Cancer
  AUC: 1
SW780, Bladder Cancer
  AUC: 0.8694
SW837, Colon/Colorectal Cancer
  AUC: 0.8996
SW900, Lung Cancer
  AUC: 0.9538
SW948, Colon/Colorectal Cancer
  AUC: 0.8065
SW1088, Glioma
  AUC: 0.9904
SW1116, Colon/Colorectal Cancer
  AUC: 0.8985
SW1463, Colon/Colorectal Cancer
  AUC: 0.8864
SW1710, Bladder Cancer
  AUC: 1
T3M10, Lung Cancer
  AUC: 0.9279
T24, Bladder Cancer
  AUC: 0.9961
T47D, Breast Cancer
  AUC: 0.8791
TALL1, T-acute leukemia
  AUC: 0.9864
TC71, Ewing Sarcoma
  AUC: 0.7599
TC106, Ewing Sarcoma
  AUC: 1
TC205, Ewing Sarcoma
  AUC: 0.7558
TCCPAN2, Pancreatic Cancer
  AUC: 0.9414
TCCSUP, Bladder Cancer
  AUC: 0.982
TE1, Esophageal Cancer
  AUC: 1
TE4, Esophageal Cancer
  AUC: 1
TE6, Esophageal Cancer
  AUC: 0.9744
TE9, Esophageal Cancer
  AUC: 0.9981
TE10, Esophageal Cancer
  AUC: 0.7792
TE11, Esophageal Cancer
  AUC: 0.9258
TE15, Esophageal Cancer
  AUC: 0.8586
TE617T, Rhabdomyosarcoma
  AUC: 0.9947
TF1, AML
  AUC: 0.6668
TM87, Rhabdoid
  AUC: 0.9581
TOLEDO, Lymphoma
  AUC: 0.9697
TOV21G, Ovarian Cancer
  AUC: 0.9924
TT2609C02, Thyroid Cancer
  AUC: 0.8798
TT, Thyroid Cancer
  AUC: 0.7695
TTC442, Rhabdomyosarcoma
  AUC: 0.8425
TTC549, Rhabdoid
  AUC: 0.9131
TTC642, Rhabdoid
  AUC: 0.7844
TTC1240, Rhabdoid
  AUC: 0.4497
TYKNU, Ovarian Cancer
  AUC: 0.8502
U2OS, Osteosarcoma
  AUC: 0.8623
U266B1, Myeloma
  AUC: 0.9866
U937, AML
  AUC: 0.7957
UACC62, Melanoma
  AUC: 0.8964
UACC257, Melanoma
  AUC: 0.9638
UBLC1, Bladder Cancer
  AUC: 0.695
UMUC1, Bladder Cancer
  AUC: 0.8319
UW228, Medulloblastoma
  AUC: 0.9704
VMCUB1, Bladder Cancer
  AUC: 0.7437
VMRCRCW, Kidney Cancer
  AUC: 0.9159
VMRCRCZ, Kidney Cancer
  AUC: 0.8277
WM88, Melanoma
  AUC: 0.9177
WM793, Melanoma
  AUC: 0.9978
WM983B, Melanoma
  AUC: 0.8412
YAPC, Pancreatic Cancer
  AUC: 1
YD10B, Head and Neck Cancer
  AUC: 0.8679
YD15, Head and Neck Cancer
  AUC: 0.7679
YD38, Head and Neck Cancer
  AUC: 0.6898
YH13, Glioblastoma
  AUC: 0.9673
